Laboratory results as given in patent US9586993B2, “CD44v6-derived peptides for treating pancreatic cancer” (AMCURE GMBH, priority 2012, dated 2017).
Where two headings read alike, the source gives them in different places. No end group written: not given here.

What was measured:
[1] = tested on: Met; settings: Matzke et al., Cancer Res. (2005), cited from earlier work
[2] = tested on: HGF induced activation of the receptor tyrosine kinase Met and ERK; assay: HGF-induced activation of Met and ERK in BSp73ASs6 cells (western blot); assay type: cell-based, rat; settings: HGF 10 ng/ml, peptide added 10 min before induction
Protocol: (§1) Serum-starved cells (24 hours) were induced with the growth factor HGF (10 ng/mL) at 37° C. for 5 minutes. Where indicated, the cells were treated with peptides (100 ng/ml) prior to induction at 37° C. for 10 minutes (100 ng/mL CD44v6 peptide or control peptide). Following the induction with HGF, cells were washed with ice-cold phosphate-buffered saline (PBS). To detect activated Met and Erk, cells were lysed in sodium dodecyl sulfate (SDS)-sample buffer containing 100 mM dithiothreitol (DTT), boiled and subjected to western blot analysis using antibodies against phospho-Met and ERK. The loading controls were performed on the same blot after stripping (62.5 mM Tris, pH 6.8, 2% SDS, 0.8% DTT) by probing with the Met respectively ERK antibody. Blots were stained using the enhanced chemiluminescence system (Thermo Fisher Scientific, Schwerte, Germany). Bands in western blot analysis were quantified with the program Image J (National Institutes of Health).
The PEG-control peptide and PEG-rat CD44v6 peptide were compared for their ability to block HGF induced activation of the receptor tyrosine kinase Met and ERK. […]
Activation of ERK and Met was determined by standard SDS and Western Blotting techniques using a phospho-Met and phospho-Erk specific antibody (phospho-Met clone D16 cell signaling, phospho-Erk p42/44 cell signaling)

[3] = tested on: BSp73ASs6 tumors; settings: rat, iv
Protocol: In vivo imaging of the subcutaneously grown BSp73ASs6 tumors in BD10 or BDX rats was performed using the near infrared fluorescence (NIRF)-imaging system Optix MX2 (ART, Montreal, Canada) as described earlier (Napp et al., Int J Cancer (2010), 127:1958-1974). To avoid autofluorescence of fur, rats were shaved around the tumor prior to imaging. Subsequently, animals were anesthetized using 2% isoflurane and gently fixed on the devices' heated plate for the entire time of data acquisition. To reduce fluorescence background, rats were fed with chlorophyll-reduced food (Provimi Kliba AG, Kaiseraugst, Switzerland) for one week prior NIRF imaging. All in vivo analyses were preceded by native scans of animals without any injection of the fluorescent probe. For in vivo analysis, rats were injected with 200 DY681-labeled rat v6 11mer peptide or the human v6 11mer peptide via the tail vein. […]
DY681 fluorescence was measured using excitation at 670 nm in combination with a 700 nm long-pass emission filter. […] Data sets were analyzed with OptiView (ART).
For in vivo experiments, BSp73ASs6 cells were injected subcutaneously into syngeneic rats. […] The accumulation of the fluorescence was measured in the tumor region by Optix MX2 at the indicated time points. […] Then, in vivo binding kinetics of the Dy681-labeled v6 peptides to the subcutaneous tumors were determined.

[4] = tested on: BSp73ASs6 cells; assay: Staining of fixed BSp73ASs6 cells with DY681-labeled peptides; assay type: binding, rat; settings: DY681-labeled peptide, one hour
Protocol: (§2) ASs6 or L3.6p1 cells were seeded at 5,000 cells/well of a Lab-Tek® Chamber Slide™ (Nunc, Napierville, Ill., USA). On the following day the cells were washed with cold PBS and fixed with 4% Formalin for 30 min at RT. Unspecific binding was blocked with 1% BSA in PBS for 1 hour at RT. The cells were incubated for 1 hour with the DY681-labeled peptides. After three washing steps with PBS the cover slips were mounted with Fluorescence Mounting Medium (Dako, Glostrup, Denmark) and the immunofluorescence was measured by a laser scanning confocal microscope Leica TCS2 SP2 (Exton, Pa., USA) and processed using Leica confocal software. A 20× objective was used for imaging.

[5] = tested on: L3.6p1 pancreatic carcinoma cells; assay: Human orthotopic model, L3.6p1 cells in the pancreas of nude mice; assay type: in vivo, mouse; settings: dose reduction experiment, 0.2 to 20 μg per injection three times per week for 3 weeks
[6] = tested on: L3.6p1 pancreatic carcinoma cells; assay: as above; assay type: in vivo, mouse
Protocol: In the case of the human orthotopic model, L3.6p1 pancreatic carcinoma cells (passage 24-26) were suspended in Hank's balanced salt solution (Invitrogen, Karlsruhe, Germany) after trypsinization. The cells were injected orthotopically in the pancreas of male nude mice as described (Bruns C J et al. (1999) Neoplasia 1(1):50-62). Two groups of 15 mice each were injected i.p. 7 days later with either the human v6 peptide respectively rat control peptide (20 μg). For all experiments described and depicted herein either the rat 14mer control peptide or the human 14mer peptide were used. All experiments were then repeated with the rat 5mer control peptide or the human 5mer peptide (N-R-W-H-E, SEQ ID NO: 2). […] The injection was repeated three times per week for 21 days. Two days after the last treatment the animals were killed.
7 μm thick paraffin sections were deparaffinized and rehydrated. For P-Met staining antigen unmasking was achieved by boiling the slides in 1 mM EDTA pH 8.0 followed by incubation for 15 minutes at a sub-boiling temperature, for CD31 staining the sections were treated with Proteinase K (8 μg/ml) for 10 min at 37° C. For immunofluorescence staining of P-Met, unspecific binding was blocked with 5% goat serum (DAKO, Glostrup, Denmark) (diluted in 1×PBS/0.3% Triton X-100) for 60 minutes. In the case of immunohistochemistry, endogenous peroxidases were at first blocked with 3% H2O2 in PBS followed by incubation with biotin blocking system (Dako, Glostrup, Denmark) and then unspecific binding was inhibited by incubation with 5% FCS in PBS. The sections were incubated with the P-Met antibody (D26, dilution 1:50 in 1×PBS/1% BSA/0.3% Triton X-100), Met antibody (C-28, dilution 1:50), GFP antibody (sc-101525, dilution 1:50) or antibody (5 μg/ml) over night or VFF18 (5 μg/ml) o/n at 4° C. After washing in PBS the sections were incubated with Alexa Fluor R 546 goat anti-rabbit (in case of immunofluorescence P-Met and Met staining, dilution 1:500) or a biotinylated secondary antibody (for immunohistochemical stainings rabbit anti-rat antibody for VFF18 and CD31, goat anti-rabbit for P-Met, cleaved Caspase-3 and cleaved Caspase-8 and rabbit anti-mouse for GFP, dilution 1:500) for 45 minutes. For DAB (3,3′-diaminobenzidine) staining the sections were treated with a streptavidin-peroxidase conjugate (Dako, Glostrup, Denmark) and developed with DAB substrate system (3,3′-diaminobenzidine; Biozol, Eching, Germany) For immunofluorescence DAPI was used for nuclear staining.
The three CD44v6 specific compounds (v6 5mer, PEG840-v6 5mer and PEG2000-v6 5mer of human origin) and a control peptide were applied in three concentrations (2 μg, 20 μg, 200 μg per injection) three times per week i.p. for 4 weeks. One week before start of the treatment the L3.6p1 tumor cells were orthotopically implanted into nude mice.
Animals were implanted orthotopically with L3.6p1 cells. Tumor growth was allowed for one week before the treatment with the linear v6 14mer, the cyclic v6 8mer as well as the control peptide (rat v6 14mer) was started. All peptides were injected three times per week at a concentration of 0.2, 2 and 10 μg per injection for 3 weeks. At the end of the treatment animals were sacrificed.
A comparison of different CD44v6 peptide derivatives was performed in animals bearing a orthotopic L3.6p1 tumor. 10 groups of 5 animals each received a dose of 20 μg peptide per injection three times per week for 3 weeks with the compounds listed in Table 4. Three weeks after starting the treatment the animals were sacrificed and analyzed for macroscopic metastases and tumor volume.

[7] = tested on: Met activation and downstream signaling to ERK; assay: HGF-induced activation of Met and ERK in L3.6p1 cells (western blot); assay type: cell-based, human; settings: HGF 10 ng/ml
Protocol: as §1
To expand the studies to human pancreatic tumors, the highly metastatic human pancreatic carcinoma cells L3.6p1 (Bruns, et al. Neoplasia (1999), 1(1):50-62) were investigated. These cells originate from the […] cells that have been passaged several times in the liver and the pancreas, a step that rendered them more and more metastatic. It was confirmed that Met is dependent on CD44v6 for its activation and signaling in these cells (FIG. 4A). The L3.6p1 cells were treated with HGF in the presence or absence of a human v6 peptide of SEQ ID NO: 2 or SEQ ID NO:6 and Met activation and downstream signaling to ERK was measured.

[8] = tested on: L3.6p1 cells; assay: Staining of L3.6p1 cells with DY681-labeled peptides; assay type: binding, human; settings: DY681-labeled peptide
Protocol: as §2

[9] = tested on: L3.6p1 tumors; assay: In vivo and ex vivo imaging with Pearl Imager of mice bearing L3.6p1 tumors; parameters: species or system mouse
Protocol: In vivo imaging of the mice with the L3.6p1 tumors was performed using the Pearl™ Imager (LI-COR Biosciences, Bad Homburg, Germany) The system uses two lasers (685 and 785 nm) for excitation and a charge-coupled device detector for signal detection. The laser excitation enables a deep tissue penetration. With the near-infrared detection a high sensitivity due to the reduced tissue auto-fluorescence is achieved. In order to standardize the images we made use of the Pearl Cam Software. The animals were fed with chlorophyll-reduced food to reduce the fluorescence background one week before imaging (Regime 210, safe-diets, Augy, France). Prior to imaging the mice were anesthetized with 2.0% isoflurane. Animals were placed on the heated plate of the imager and continuous delivery of isoflurane was achieved through a nose cone in the imaging drawer. Images were captured at white light, 700 and 800 nm Animals were imaged prior to i.v. peptide injection and 24 h after injection with either DY681-labeled human v6 peptide or DY681-labeled rat v6 peptide as control Immediately after each imaging session animals were killed, tumor, liver and spleen isolated and scanned ex vivo at white light, 700 and 800 nm.

## A-R-W-H-A (ARWHA) [A-R-W-H-A (SEQ ID NO: 3)]
[1]
  inhibition of CD44v6 mediated activation of Met: capable of abrogating Met activation
[1]; listed as SEQ ID NO: 3
  inhibition of CD44v6 mediated activation of Met: still active in inhibiting CD44v6 mediated activation of Met

## WFENEWQGKNP (also: DY681 dye, position not given here) [DY681 rat v6 peptide, rat 11mer labeled with the fluorescent dye DY681]
[2]
  inhibition of HGF-induced activation of Met and Erk: inhibited Met activation
[3]; in vivo
  time of maximum fluorescence intensity over the tumor area: 1 days
[3]
  duration of high fluorescence intensity over the tumor area in vivo: at least 2 days
[4]
  binding to BSp73ASs6 cells in tissue culture: bound to BSp73ASs6 cells in tissue culture

## cy[KGNRWHEG] (also: cyclic, ring type not given here) [cycl. 8 mer]
[5]; listed as cyclic 8mer
  size / growth of the primary tumor: reduces growth of the primary tumor
[5]; listed as cyclic v6 8mer
  size / growth of the primary tumor: drastic effect on growth of the primary tumor
[6]; 2 μg per injection i.p. three times per week
  metastasis formation (liver): blocked metastatic spreading at 2 and 20 μg per injection very efficiently
[6]; 20 μg per injection i.p. three times per week for three weeks, start one week after implantation
  outgrowth / size of the primary tumor: strongest reduction of tumor size
[6]; 20 μg per injection i.p. three times per week, start one week after implantation, listed as cyclic 8mer
  metastasis formation (liver): complete inhibition of metastasis
[6]; 20 μg per injection i.p. three times per week, start one week after implantation, listed as cyclic v6 8mer
  metastasis formation (liver): blocked metastatic spreading at 2 and 20 μg per injection very efficiently

## WFQNGWQGKNP (also: DY681 dye, position not given here) [DY681 mouse v6 peptide, mouse 11mer labeled with the fluorescent dye DY681, control, reference compound]
[2]
  inhibition of HGF-induced activation of Met and Erk: but not the mouse peptide inhibited Met activation

## WFGNRWHEGYR (also: DY681 dye, position not given here) [DY681 human v6 peptide, human 11mer labeled with the fluorescent dye DY681]
[7]
  inhibition of HGF-induced activation (phosphorylation) of Met and ERK: inhibited Met activation in L3.6p1 cells
[8]
  binding to L3.6p1 cells in cell culture: bound to these cells in cell culture
[9]; one i.v. injection of 20 μg, 24 h after injection
  fluorescence in the tumor in vivo: accumulated specifically in the tumor
[9]; organs excised 24 h after injection
  ex vivo fluorescence in primary tumors, livers and spleens: binding not only to primary tumors but also to areas of the liver
